Experimental data from patent US20260092073A1, “NOVEL COMPOUNDS” (Hoffmann-La Roche Inc., priority 2023, published 2026).

How the values were obtained:
NLRP3 [1] = target: T1, NLRP3 (Homo sapiens, UniProt Q96P20); test: THP-1 cells pyroptosis assay; assay type: cell-based; design: Seed THP-1 cells (25,000 cells/well) containing 1.0 μg/ml LPS; host or cells: THP-1 cells, LPS-primed, nigericin-stimulated; settings: LPS 1.0 μg/ml, nigericin 5 μM, resazurin readout
Source text: It is well established that the activation of NLRP3 leads to cell pyroptosis and this feature plays an important part in the manifestation of clinical disease (Yan-gang Liu et al., Cell Death & Disease, 2017, 8(2), e2579; Alexander Wree et al., Hepatology, 2014, 59(3), 898-910; Alex Baldwin et al., Journal of Medicinal Chemistry, 2016, 59(5), 1691-1710; Ema Ozaki et al., Journal of Inflammation Research, 2015, 8, 15-27; Zhen Xie & Gang Zhao, Neuroimmunology Neuroinflammation, 2014, 1(2), 60-65; Mattia Cocco et al., Journal of Medicinal Chemistry, 2014, 57(24), 10366-10382; T. Satoh et al., Cell Death & Disease, 2013, 4, e644). Therefore, it is anticipated that inhibitors of NLRP3 will block pyroptosis, as well as the release of pro-inflammatory cytokines (e.g. […]) from the cell.
THP-1 cells (ATCC #TIB-202) were grown in RPMI containing L-glutamine (Gibco #11835) supplemented with 1 mM sodium pyruvate (Sigma #S8636) and penicillin (100 units/ml)/streptomycin (0.1 mg/ml) (Sigma #P4333) in 10% Fetal Bovine Serum (FBS) (Sigma #F0804). The cells were routinely passaged and grown to confluency (˜10^6 cells/ml). On the day of the experiment, THP-1 cells were harvested and resuspended into RPMI medium (without FBS). The cells were then counted and viability (>90%) checked by Trypan blue (Sigma #T8154). Appropriate dilutions were made to give a concentration of 625,000 cells/ml. To this diluted cell solution was added LPS (Sigma #L4524) to give a […] Final Assay Concentration (FAC). 40 μl of the final preparation was aliquoted into each well of a 96-well plate. The plate thus prepared was used for compound screening.
The following method step-by-step assay was followed for compound screening.
Seed THP-1 cells (25,000 cells/well) containing 1.0 μg/ml LPS in 40 μl of RPMI medium (without FBS) in 96-well, black walled, clear bottom cell culture plates coated with poly-D-lysine (VWR #734-0317)
Add 5 μl compound (8 points half-log dilution, with 10 μM top dose) or vehicle (DMSO 0.1% FAC) to the appropriate wells
(§1) Incubate for 3 hours at 37° C., 5% CO2
Add 5 μl nigericin (Sigma #N7143) (FAC 5 μM) to all wells
(§2) Incubate for 1 hr at 37° C., 5% CO2
At the end of the incubation period, spin plates at 300 xg for 3 mins and remove supernatant
Then add 50 μl of resazurin (Sigma #R7017) (FAC 100 μM resazurin in RPMI medium without FBS) and incubate plates for a further 1-2 hours at 37° C. and 5% CO2
Plates were read in an Envision reader at Ex 560 nm and Em 590 nm
(§3) IC50 data is fitted to a non-linear regression equation (log inhibitor vs response-variable slope 4-parameters)

NLRP3 [2] = target: T1, NLRP3; test: Human whole blood IL-1β release assay; assay type: cell-based; design: Human whole blood in Li-heparin tubes was obtained from healthy donors; from tissue; host or cells: human whole blood from healthy donors; settings: LPS, nigericin 10 μM, IL-1β by AlphaLisa
Experimental: For systemic delivery, the ability to inhibit NLRP3 when the compounds are present within the bloodstream is of great importance. For this reason, the NLRP3 inhibitory activity of a number of compounds in human whole blood was investigated in accordance with the following protocol.
Human whole blood in Li-heparin tubes was obtained from healthy donors from a volunteer donor panel.
Plate out 80 μl of whole blood containing […] of LPS in 96-well, clear bottom cell culture plate (Corning #3585)
Add 10 μl compound (8 points half-log dilution with 10 μM top dose) or vehicle (DMSO 0.1% FAC) to the appropriate wells
as §1
Add 10 μl nigericin (Sigma #N7143) (10 μM FAC) to all wells
as §2
At the end of the incubation period, spin plates at 300 xg for 5 mins to pellet cells and remove 20 μl of supernatant and add to 96-well v-bottom plates for IL-1β analysis (note: these plates containing the supernatants can be stored at −80° C. to be analysed at a later date)
IL-1β was measured according to the manufacturer protocol (Perkin Elmer-AlphaLisa IL-1 Kit AL220F-5000)
as §3

T1 sequence (Q96P20 whole entry): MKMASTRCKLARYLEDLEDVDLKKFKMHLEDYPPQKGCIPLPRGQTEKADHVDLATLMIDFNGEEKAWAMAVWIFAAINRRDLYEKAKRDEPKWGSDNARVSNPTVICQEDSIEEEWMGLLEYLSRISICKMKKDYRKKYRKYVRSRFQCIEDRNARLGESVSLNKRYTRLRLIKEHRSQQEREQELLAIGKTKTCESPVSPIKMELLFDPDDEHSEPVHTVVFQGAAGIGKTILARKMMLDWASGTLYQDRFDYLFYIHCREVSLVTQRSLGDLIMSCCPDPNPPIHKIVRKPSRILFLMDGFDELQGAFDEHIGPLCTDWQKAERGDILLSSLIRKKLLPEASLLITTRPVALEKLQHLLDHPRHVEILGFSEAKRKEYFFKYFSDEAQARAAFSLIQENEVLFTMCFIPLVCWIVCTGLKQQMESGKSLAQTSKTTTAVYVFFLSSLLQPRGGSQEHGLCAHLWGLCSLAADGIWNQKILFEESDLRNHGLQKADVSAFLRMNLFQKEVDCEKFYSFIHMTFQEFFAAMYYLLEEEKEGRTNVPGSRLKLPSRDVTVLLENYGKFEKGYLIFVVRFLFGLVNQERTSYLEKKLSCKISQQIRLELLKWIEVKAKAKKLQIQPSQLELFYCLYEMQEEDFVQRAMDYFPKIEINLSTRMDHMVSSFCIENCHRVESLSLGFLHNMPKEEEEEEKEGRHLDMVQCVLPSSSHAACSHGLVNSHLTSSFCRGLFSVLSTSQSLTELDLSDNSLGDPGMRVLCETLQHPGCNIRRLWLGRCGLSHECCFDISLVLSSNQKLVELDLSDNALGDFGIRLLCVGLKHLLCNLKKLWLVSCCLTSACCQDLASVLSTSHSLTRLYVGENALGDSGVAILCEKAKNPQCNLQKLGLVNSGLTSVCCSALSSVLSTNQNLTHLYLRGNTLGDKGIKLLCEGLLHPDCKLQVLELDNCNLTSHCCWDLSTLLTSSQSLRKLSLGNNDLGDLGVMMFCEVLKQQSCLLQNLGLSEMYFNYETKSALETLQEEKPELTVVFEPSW

Row | IC50 (NLRP3 [1]) [nM] | IC50 (NLRP3 [2]) [nM] | SMILES
1 | 3 | 18 | CCN1C[C@@H](O)C[C@@H](Nc2nc3nc(-c4c(C)cc(C#N)cc4O)cnc3o2)C1 [Example 17, 4-[2-[[(3R,5S)-1-Ethyl-5-hydroxy-3-piperidyl]amino]oxazolo[4,5-b]pyrazin-5-yl]-3-hydroxy-5-methyl-benzonitrile]
2 | 4 |  | COc1cc(-c2c(C)cc3c(c2O)CCC3)nc2nc(N[C@@H]3CCCN(CCO)C3)oc12 [Example 19, 5-[2-[[(3R)-1-(2-Hydroxyethyl)-3-piperidyl]amino]-7-methoxy-oxazolo[4,5-b]pyridin-5-yl]-6-methyl-indan-4-ol]
3 | 75 | 68 | COCc1cc(C#N)cc(O)c1-c1cc(OC)c2oc(N[C@@H]3CCCN(CCO)C3)nc2n1 [Example 20, 3-Hydroxy-4-[2-[[(3R)-1-(2-hydroxyethyl)-3-piperidyl]amino]-7-methoxy-oxazolo[4,5-b]pyridin-5-yl]-5-(methoxymethyl)benzonitrile]
4 | 9 |  | COCc1cc2c(c(O)c1-c1cc(OC)c3oc(N[C@@H]4CCCN(CCO)C4)nc3n1)CCO2 [Example 21, 5-[2-[[(3R)-1-(2-Hydroxyethyl)-3-piperidyl]amino]-7-methoxy-oxazolo[4,5-b]pyridin-5-yl]-6-(methoxymethyl)-2,3-dihydrobenzofuran-4-ol]
5 | 5 | 39 | COc1cc(-c2c(C)cc3c(c2O)CCO3)nc2nc(N[C@@H]3CCCN(CCO)C3)oc12 [Example 22, 5-[2-[[(3R)-1-(2-Hydroxyethyl)-3-piperidyl]amino]-7-methoxy-oxazolo[4,5-b]pyridin-5-yl]-6-methyl-2,3-dihydrobenzofuran-4-ol]
6 | 44 | 34 | CCN1C[C@@H](O)C[C@@H](Nc2nc3nc(-c4c(O)cc(C#N)cc4COC)cnc3o2)C1 [Example 23, 4-[2-[[(3R,5S)-1-Ethyl-5-hydroxy-3-piperidyl]amino]oxazolo[4,5-b]pyrazin-5-yl]-3-hydroxy-5-(methoxymethyl)benzonitrile;2,2,2-trifluoroacetic Acid]
7 | 19 | 53 | Cc1cc2c(c(O)c1-c1cnc3oc(N[C@@H]4C[C@H](O)CN(CCO)C4)nc3n1)CCO2 [Example 24, (3S,5R)-1-(2-Hydroxyethyl)-5-[[5-(4-hydroxy-6-methyl-2,3-dihydrobenzofuran-5-yl)oxazolo[4,5-b]pyrazin-2-yl]amino]piperidin-3-ol]

Further lines, the compound ahead of its results:

Row | SMILES | IC50 (NLRP3 [1]) [nM] | IC50 (NLRP3 [2]) [nM]
8 | Cc1cc(C#N)cc(O)c1-c1cnc2oc(N[C@@H]3CCCN(CCO)C3)nc2n1 [Example 1, 3-Hydroxy-4-[2-[[(3R)-1-(2-hydroxyethyl)-3-piperidyl]amino]oxazolo[4,5-b]pyrazin-5-yl]-5-methyl-benzonitrile;2,2,2-trifluoroacetic Acid] | 3.3 | 24.2
9 | CCN1C[C@@H](O)C[C@@H](Nc2nc3nc(-c4c(C)cc(C#N)cc4O)cnc3o2)C1 [Example 2, 4-[2-[[(3R,5S)-1-Ethyl-5-hydroxy-3-piperidyl]amino]oxazolo[4,5-b]pyrazin-5-yl]-3-hydroxy-5-methyl-benzonitrile;2,2,2-trifluoroacetic Acid] | 4.3 | 19.6
10 | COCc1cc(C#N)cc(O)c1-c1ccc2oc(N[C@@H]3CCCN(CCO)C3)nc2n1 [Example 3, 3-Hydroxy-4-[2-[[(3R)-1-(2-hydroxyethyl)-3-piperidyl]amino]oxazolo[4,5-b]pyridin-5-yl]-5-(methoxymethyl)benzonitrile] | 27.9 | 35.2
11 | Cc1cc(C#N)cc(O)c1-c1ccc2oc(N[C@@H]3CCCN(CCc4ncco4)C3)nc2n1 [Example 4, 3-Hydroxy-5-methyl-4-[2-[[(3R)-1-(2-oxazol-2-ylethyl)-3-piperidyl]amino]oxazolo[4,5-b]pyridin-5-yl]benzonitrile] | 26.1 | 192
12 | Cc1cc(C(F)(F)F)cc(O)c1-c1ccc2oc(N[C@@H]3C[C@H](O)CN(CCCC(=O)O)C3)nc2n1 [Example 5, 4-[(3S,5R)-3-Hydroxy-5-[[5-[2-hydroxy-6-methyl-4-(trifluoromethyl)phenyl]oxazolo[4,5-b]pyridin-2-yl]amino]-1-piperidyl]butanoic Acid] | 51 | 432
13 | Cc1cc(C(F)(F)F)cc(O)c1-c1ccc2oc(N[C@@H]3C[C@H](O)CN(CCO)C3)nc2n1 [Example 6, (3S,5R)-1-(2-Hydroxyethyl)-5-[[5-[2-hydroxy-6-methyl-4-(trifluoromethyl)phenyl]oxazolo[4,5-b]pyridin-2-yl]amino]piperidin-3-ol] | 12 | 95
14 | Cc1cc(C#N)cc(O)c1-c1cnc2oc(N[C@@H]3C[C@H](O)CN(C)C3)nc2n1 [Example 7, 3-Hydroxy-4-[2-[[(3R,5S)-5-hydroxy-1-methyl-3-piperidyl]amino]oxazolo[4,5-b]pyrazin-5-yl]-5-methyl-benzonitrile;2,2,2-trifluoroacetic Acid] | 10 | 17
15 | COc1cc(-c2c(C)cc(C#N)cc2O)nc2nc(N[C@@H]3CCCN(CCO)C3)oc12 [Example 8, 3-Hydroxy-4-[2-[[(3R)-1-(2-hydroxyethyl)-3-piperidyl]amino]-7-methoxy-oxazolo[4,5-b]pyridin-5-yl]-5-methyl-benzonitrile;2,2,2-trifluoroacetic Acid] | 11 | 28
16 | Cc1cc(C#N)cc(O)c1-c1ccc2oc(N[C@H]3CNC[C@@H](O)C3)nc2n1 [Example 9, 3-Hydroxy-4-[2-[[(3R,5S)-5-hydroxy-3-piperidyl]amino]oxazolo[4,5-b]pyridin-5-yl]-5-methyl-benzonitrile] | 45 | 84
17 | Cc1cc(C#N)cc(O)c1-c1cnc2oc(N[C@@H]3CCCN(CCO)C3)nc2n1 [Example 10, 3-Hydroxy-4-[2-[[(3R)-1-(2-hydroxyethyl)-3-piperidyl]amino]oxazolo[4,5-b]pyrazin-5-yl]-5-methyl-benzonitrile] | 5 | 29
18 | COCc1cc2c(c(O)c1-c1cnc3oc(N[C@@H]4CCCN(CCO)C4)nc3n1)CCO2 [Example 11, 5-[2-[[(3R)-1-(2-Hydroxyethyl)-3-piperidyl]amino]oxazolo[4,5-b]pyrazin-5-yl]-6-(methoxymethyl)-2,3-dihydrobenzofuran-4-ol] | 4 | 8
19 | Cc1cc2c(c(O)c1-c1cnc3oc(N[C@@H]4CCCN(CCO)C4)nc3n1)CCO2 [Example 13, 5-[2-[[(3R)-1-(2-Hydroxyethyl)-3-piperidyl]amino]oxazolo[4,5-b]pyrazin-5-yl]-6-methyl-2,3-dihydrobenzofuran-4-ol] | 0.8 | 19
20 | COc1cc(-c2c(C)cc(C#N)cc2O)nc2nc(N[C@@H]3CCCN(CCO)C3)oc12 [Example 16, 3-Hydroxy-4-[2-[[(3R)-1-(2-hydroxyethyl)-3-piperidyl]amino]-7-methoxy-oxazolo[4,5-b]pyridin-5-yl]-5-methyl-benzonitrile] | 8 | 22
